Values after ≈ are worked out from the molar mass of the structure shown. Read-outs that look alike come from different tables or passages of the source.
Tests used:
[1] = test system: MCF-7 human breast cancer cells; experiment: Antiproliferative activity, methylene blue assay; type: cell-based; conditions: MCF-7 cells; for IC50: 72 h, mean ± SD, n = 3; for Increase in antiproliferation potency compared to unmethylated substrate: ratio of IC50 values
Protocol: (§1) Analysis of the antiproliferative activity of the test compounds was performed according to Zhu et al., with some modifications. MCF-7 human breast cancer cells were provided by the Cell Resource Center of the Chinese Academy of Sciences (Shanghai, China). Cell proliferation and cytotoxicity of anticancer activity were assessed using the methylene blue assay. For cell proliferation and cytotoxicity, MCF-7 cells were culture in a 96-well plate at 1.5 × 10^5 cells/well and at 3 × 10^5 cells/well, respectively. Various concentrations (75–400 µM) of the test samples were added to a growth medium containing MCF-7 cells followed by cultivation for […]. Following incubation for 72 h, cell proliferation was measured with an absorbance of 570 nm using a microplate reader (Bio-Rad, Hercules, MA, USA), while cell cytotoxicity measurement was carried out 24 h after incubation.

S. aureus ATCC6538 = experiment: Antimicrobial activity assay (broth culture in 96-well plate, CCK8 staining, MIC/MBC); type: cell-based, Staphylococcus aureus; conditions: for Growth inhibition: S. aureus ATCC 6538; for MBC / MIC: S. aureus ATCC6538, tested at 15–400 µM
Protocol: (§2) Antimicrobial biological activities of the tested compounds were evaluated as Zhong et al., with some modifications. Gram-positive and -negative bacteria and fungi (S. aureus ATCC6538, E. coli ATCC25922, and C. albicans SC5314) were selected for evaluation in the present study. S. aureus ATCC6538 and E. coli ATCC25922 were cultured with Luria-Bertani medium, while for C. albicans SC5314, potato dextrose broth medium was used for 24 h at 37 °C (bacterial suspension in 1 × 10^6 CFU/mL). […] Each strain was, respectively, transferred into a 96-well plate at 100 µL/well (90 µL bacterial suspension and 10 µL sample solution) after adding different concentrations of samples, followed by incubation for 12–16 h. The optical density at 650 nm (OD650) of C. albicans SC5314 was measured after TTC staining, while S. aureus ATCC6538 and E. coli ATCC25922 were stained for CCK8 before measurement.

[2] = test system: MCF-7 human breast cancer cells; experiment: Cytotoxicity, methylene blue assay; type: cell-based; conditions: at a concentration corresponding to the IC50 (hesperetin 150 μM), 24 h
Protocol: as §1

E. coli ATCC25922 = experiment: Antimicrobial activity assay (broth culture in 96-well plate, CCK8 staining, MIC/MBC); type: cell-based, Escherichia coli; conditions: for Growth inhibition / MBC / MIC: E. coli ATCC25922; for MBC / MIC: Escherichia coli, tested at 15–400 µM
Protocol: as §2

C. albicans SC5314 = experiment: Antimicrobial activity assay (broth culture in 96-well plate, TTC staining, MIC/MBC); type: cell-based, Candida albicans; conditions: for MIC / MBC: tested at 15–400 µM
Protocol: as §2

[3] = Candida albicans, C. albicans SC5314
[4] = Candida albicans, C. albicans SC5314, read-out: MBC

Row | Compound | IC50 ([1]; Homo sapiens, MCF7) | Increase in antiproliferation potency compared to unmethylated substrate [1] | Growth inhibition (S. aureus ATCC6538) | Cytotoxicity on MCF-7 cells [2] | Growth inhibition (E. coli ATCC25922) | MIC (C. albicans SC5314; [3]) | MBC (C. albicans SC5314; [4]) | also measured
1 | COc1ccc([C@@H]2CC(=O)c3c(O)cc(O)cc3O2)cc1OC [Compound 3a, 3’-methoxy-hesperetin] | 10.5 ± 0.45 µM | more than 14.35 fold | failed to inhibit the growth | Slight cytotoxicity | failed to inhibit the growth | 50 µM (≈ 15.8 µg/mL) | > 400 µM | –
2 | COc1ccc([C@@H]2CC(=O)c3c(O)cc(O)cc3O2)cc1O [Compound 3, hesperetin, reference compound] | > 150 µM | – | failed to inhibit the growth | Slight cytotoxicity | failed to inhibit the growth | 75 µM (≈ 22.7 µg/mL) | > 400 µM | –
3 | O=C1C[C@@H](c2ccc(O)cc2)Oc2cc(O)ccc21 [Compound 1, liquiritigenin, reference compound] | 101 ± 1.83 µM | – | – | Slight cytotoxicity | – | 25 µM (≈ 6.41 µg/mL) | > 400 µM | MBC (S. aureus ATCC6538; Staphylococcus aureus): > 400 µM; MIC (S. aureus ATCC6538; Staphylococcus aureus): 75 µM (≈ 19.2 µg/mL); MBC (E. coli ATCC25922): > 400 µM; MIC (E. coli ATCC25922): 25 µM (≈ 6.41 µg/mL)
4 | 7-methoxy-naringenin [Compound 2a] | – | 1.34 fold | failed to inhibit the growth | highest | failed to inhibit the growth | – | – | IC50 [1]: 93.6 ± 1.06 µM; Cytotoxicity on MCF-7 cells ([2]; listed as 7-methoxynaringenin): Slight cytotoxicity; Increase of highest antimicrobial activity compared to naringenin (C. albicans SC5314; C. albicans SC5314, highest activity): 182.12%; MBC (C. albicans SC5314; C. albicans SC5314): >400 >400 μM; MIC (C. albicans SC5314; C. albicans SC5314): 75 µM
5 | COc1cc(O)c2c(c1)O[C@H](c1ccc(OC)c(O)c1)CC2=O [Compound 3b, 7-methoxy-hesperetin] | 30.7 ± 0.72 µM | – | failed to inhibit the growth | lowest | failed to inhibit the growth | 25 µM (≈ 7.91 µg/mL) | > 400 µM | Cytotoxicity on MCF-7 cells ([2]; listed as 7-methoxyhesperetin): No cytotoxicity
6 | COc1ccc2c(c1)O[C@H](c1ccc(O)cc1)CC2=O [Compound 1a, 7-methoxy-liquiritigenin] | 11.2 ± 0.6 µM | 8.99 fold | – | Slight cytotoxicity | – | 25 µM (≈ 6.76 µg/mL) | > 400 µM | Increase of antimicrobial activity compared to liquiritigenin (S. aureus ATCC6538; S. aureus ATCC6538, 250 μM): 148.77%; Increase of inhibitory effect compared to unmethylated counterpart (S. aureus ATCC6538; S. aureus ATCC6538, 250 μM): 1.49 fold; MIC (S. aureus ATCC6538): 75 µM (≈ 20.3 µg/mL); MBC (S. aureus ATCC6538; Staphylococcus aureus): > 400 µM; MIC (S. aureus ATCC6538; Staphylococcus aureus): 75 µM (≈ 20.3 µg/mL); Increase of antimicrobial activity compared to liquiritigenin (E. coli ATCC25922; E. coli ATCC25922, 400 μM): 54.41%; Increase of inhibitory effect compared to unmethylated counterpart (E. coli ATCC25922; E. coli ATCC25922, 400 μM): 0.54 fold; MBC (E. coli ATCC25922): > 400 µM; MIC (E. coli ATCC25922): 15 µM (≈ 4.05 µg/mL); Increase (MIC) compared to the unmethylated substrate (C. albicans SC5314; C. albicans SC5314): 3 fold; Increase of antimicrobial activity compared to liquiritigenin (C. albicans SC5314; C. albicans SC5314, 200 μM): 765.64%; Increase of inhibitory effect compared to unmethylated counterpart (C. albicans SC5314; C. albicans SC5314, 200 μM): 7.65 fold; MIC (C. albicans SC5314; C. albicans SC5314): 25 µM (≈ 6.76 µg/mL)
7 | O=C1C[C@@H](c2ccc(O)cc2)Oc2cc(O)cc(O)c21 [Compound 2, naringenin, reference compound] | 126 ± 2.76 µM | – | failed to inhibit the growth | Slight cytotoxicity | failed to inhibit the growth | 75 µM (≈ 20.4 µg/mL) | > 400 µM | –
8 | COc1cc(O)c2c(c1)O[C@H](c1ccc(OC)c(OC)c1)CC2=O [Compound 3c, 7,3’-dimethoxy-hesperetin] | 31 ± 1.44 µM | – | failed to inhibit the growth | Slight cytotoxicity | failed to inhibit the growth | 75 µM (≈ 24.8 µg/mL) | > 400 µM | –

— article PMC8535490, “Biotransformation of Flavonoids Improves Antimicrobial and Anti-Breast Cancer Activities In Vitro” (Foods, 2021)
